Results taken from patent publication US6335157B1, “Method based on localization of Hsp90 to the centrosome” (The European Molecular Biology Laboratory, priority 1999, dated 2002).

Test system: Hela and human epithelial kidney 293 cells
Experiment: Geldanamycin treatment of cells, immunofluorescence staining with anti-α-tubulin, anti-γ-tubulin and anti-Hsp90 antibodies
Type: cell-based
Settings: 1 μg/ml geldanamycin
Procedure: Geldanamycin specifically interferes with the function of Hsp90 by binding to the ATP binding site of Hsp90 (Prodromou et al., 1997, Cell 90:65-75; Stebbins et al., 1997, Cell 89:239-250). Hela and human epithelial kidney 293 cells were treated with 1 μg/ml geldanamycin for times ranging from […] (15 minutes, 30 minutes, 1 hour, 5 hours, 15 hours, 20 hours and 30 hours) and were stained with anti-α-tubulin, anti-γ-tubulin and anti-Hsp90 antibodies. […] However, aberrant mitotic spindles were detected from as early as 1 hour of treatment with geldanamycin. More than 50% of the mitotic figures produced in the presence of the drug after 20 hours of treatment contained aberrant mitotic figures in which the centrosomes, the spindles, and the distribution of chromatin were severely disrupted. […] The spindles of these cells were rather asymmetric, with unequal amounts of microtubules in each hemi-spindle and spindle poles very often detached from the centrosome. The aster microtubules which are organized around the centrosome were also abnormal in number and distribution. […] About 50% of the cells contained misaligned chromosomes. Thus, while the centrosome and the cytoskeleton of interphase cells were insensitive to geldanamycin, mitotic centrosomes cannot be properly formed in the presence of geldanamycin. […] Therefore, notwithstanding the possible contribution of other non-centrosomal functions of Hsp90 to some of these phenotypes, it is clear that the inhibition of the function of Hsp90 results in abnormalities in centrosome structure.

COC1=C2C[C@@H](C)C[C@H](OC)[C@H](O)[C@@H](C)/C=C(\C)[C@H](OC(N)=O)[C@@H](OC)/C=C\C=C(/C)C(=O)NC(=CC1=O)C2=O [geldanamycin]
cells containing misaligned chromosomes: About 50%
earliest treatment time at which aberrant mitotic spindles were detected: 1 h
mitotic figures that were aberrant (centrosomes, spindles and distribution of chromatin severely disrupted) (after 20 hours of treatment): More than 50%
